These results are taken from patent US9283235B2, “Intermittent lowering of cortisol as treatment of clinical conditions associated with abnormal concentrations of cortisol in animals” (Stegram Pharmaceuticals Limited, priority 2001, dated 2016).

Test [1] deals with advanced breast cancer. Particulars: published studies (Williams et al 1993; Ingle et al 1990); cited from earlier work.
For test [2], the system named is dogs with hyperadrenocorticism (HAC). Description: Prospective study of trilostane in dogs with spontaneous hyperadrenocorticism (HAC): clinical signs and survival. Format: in vivo, dog. On the procedure:
Animals were entered into a prospective study and all animals required clinical and laboratory signs of hyperadrenocorticism as well as a final diagnosis of this disease. Data collected from each case included a clinical-historicy and physical examination, full blood count (CBC), serum biochemical profile, urinalysis and abdominal ultrasound. An ACTH-stimulation test was performed in all dogs. […] Dogs that had been treated for HAC other medication needed to be off these drugs for at least 10 days. Dogs with renal or hepatic insufficiency and dogs that received steroids were not included in the study.
Dogs with pituitary dependant hyperadrenocorticism or adrenal tumour which was unresectable or the owners were unwilling to have surgery performed, respectively, were treated with trilostane. The initial dose for dogs[…] was 30 mg once daily, dogs between 5 and 15 kg received 60 mg once daily and dogs>15 kg received 120 mg once daily. Dosages were adjusted based on clinical signs, blood biochemical parameters and an ACTH stimulation test.
Follow-up re-examinations took place after 10 days, 4 weeks, 3 mouths, 6 months and then every 6 months or within 4 weeks of adjusting the dosage. At these points, owners were carefully questioned about their perception of the dogs general well being, dissolution of clinical signs and potential side effects and a physical examination was performed. A full biochemical profile and an ACTH stimulation test were carried out. Further tests such as urinanalysis, urine culture, thoracic radiographs, etc. were done if deemed necessary. If the clinical sips of hyperadrenocorticism (polyuria/polydipsia, polyphagia, exercise intolerance, etc.) were still present and if the post-ACTH cortisol concentration remained above 220 nmol/l, trilostane was given twice daily at the same dosage.

Values joined by “and” are separate entries in the source; they are usually repeats but may differ in a detail not shown here. Equal entries are not always repeated.

As to `CC12CCC3C(CC[C@@]45O[C@@H]4C(=O)C(C#N)CC35C)C1CC[C@@H]2O` (stereo partly drawn) [Trilostane, 2α-cyano-4α,5α-epoxyandrostan-17β-ol-3-one], the Response rate in test [1] was 29% and 38%. Moreover, the “Mean time to euthanasia or death, dogs with PDH” value in test [2] (22 dogs, SD 195.1, range 27-730 days) came to 230.9 days. Besides, the “Mean time since commencing treatment, dogs with PDH alive” value in test [2] (32 dogs, SD 285.2, range 105 to 1120 days) worked out at 417.3 days. Moreover, the Skin abnormalities entry in test [2] (all dogs with skin abnormalities, 2-3 months after starting) is on record as “marked improvement with normal hair growth”. In test [2] (dog, in vivo), the “Dogs in which polyuria/polydipsia and polyphagia dissipated within the first 10 days of treatment” value is on record as 29 dogs; the “Dogs in which polyuria/polydipsia and polyphagia dissipated within the first month of treatment” value is 14 dogs; the “Dogs with clinical signs improved but always some clinical signs of HAC” value turned out to be 6 dogs. In test [2] (of 54 dogs with PDH), the “Dogs with PDH alive” value is recorded as 32 dogs. Further, the “Median survival, dogs with adrenal tumour that died or were euthanised” value in test [2] (six dogs, SD 174.9 days) came to 260 days.
